Source: patent US6071896A, “Suppression of thromboxane levels by percutaneous administration of aspirin” (Gundersen Clinic, Ltd., priority 1998, dated 2000)
Where “and” joins values, the source holds several entries; their conditions need not be identical. Identical values can stand only once. Entries after “also recorded” stand apart in the source; their conditions may differ. Like-named read-outs stand apart in the source and are kept apart here.

Assays:
thromboxane-B2 = experiment: Thromboxane (thromboxane-B2) blood levels after topical aspirin, Example 1; type: in vivo, human
Experimental: Five healthy adult volunteers (3 male, 2 female) were studied. Each refrained from ingesting oral aspirin for two weeks prior to study. Prior to treatment in accordance with the present invention, baseline thromboxane levels and hemoccults were obtained.
Thromboxane levels were measured by assaying for blood levels of thromboxane-B2 in accordance with the method described in Braden et al., Circulation 82:178 (1990). Thromboxane levels can also be measured in either blood or urine according to known methods which include those without limitation disclosed in the following references: Hirsh et al., supra; Robertson et al., N. Engl. J. Med. 304:998 (1981); Pedersen et al., N. Engl. J. Med. 311:1206 (1984); Patrignani et al., J. Clin. Invest. 69:1366 (1982); Preston et al., 304:76 (1981); Hirsh et al., N. Engl. J. Med. 304:685 (1981).
A preparation of aspirin in isopropyl alcohol and propylene glycol was prepared by mixing "Aspirsol"™ topical aspirin (NDC54102-001-01; commercially available from TERRI Pharmaceuticals, Inc., PO Box 6454, Kingwood, Tex. 77325) in accordance with the package instructions except that 8 ml instead of 10 ml of the suspending solution was used. The resulting solution contained approximately 9% aspirin rather than the 7-8% indicated on the package label.
After base levels of thromboxane had been measured, the aspirin solution was first applied on the morning of Day 1 to the skin of the human subjects within an hour of mixing by rubbing the aspirin solution on the arms and/or chest of the subject. The application was repeated with freshly prepared solution for each of four additional mornings (Days 2-5) in the same manner. Between applications the subjects followed their normal schedule of bathing and showering. Eight hours after the fifth application (on Day 5) blood was drawn for salicylate levels and thromboxane levels to be determined. With one subject, blood was drawn for TXA2 levels every day just before application of a new aspirin solution (i.e., approximately 24 hours after application of the previous aspirin solution). Hemoccults were also tested.
Two of the subjects continued daily application for another five days (total ten days). For Days 6 and 7, aspirin solutions freshly prepared as described above were used. Beginning with Day 8, a different aspirin preparation was used. This second preparation was prepared by crushing aspirin tablets containing approximately 975 mg aspirin to form a powder. The powder was then formed into a paste with approximately 2 ml of distilled water. This paste was then mixed with 4 ml propylene glycol and 4 ml ethanol to produce approximately 10 ml of a cloudy solution. This cloudy solution was then filtered to remove excipients and other insoluble material found in the crushed aspirin tablets. After filtering, approximately 10 ml of a clear solution was obtained which contained approximately 9% aspirin. 8 ml of the resulting solution was used in each application. This second solution was applied to the two continuing subjects as previously described. Salicylate and thromboxane levels were checked after the tenth day.

[1] = tested on: TX-M excretion (TXA2 biosynthesis); experiment: Urinary TX-M excretion before and after dermal or oral aspirin, Example 3; type: in vivo, human; parameters: TX-M post ASA: unit not given beside the values
Experimental: In an additional 4 subjects, we examined the increase in PGI2 formation in response to intravenous bradykinin prior to and following oral aspirin 75 mg or dermal aspirin 750 mg daily for 14 days. The protocol for bradykinin has been described previously [Clark, N.Engl.J.Med 325:1137 (1991)]. Volunteers were admitted after an overnight fast to the Clinical Research Center. Blood samples were obtained for serum TXB2 and the subject asked to void. Through a peripheral vein, 1 liter of normal saline was infused over 1 hour. After a further hour, bradykinin was infused in incremental doses of 100-800 ng/kg/min, each over 15 mm. The infusion was continued at the maximum tolerated dose for a total period of 2 hr. Blood pressure and heart rate were monitored continuously. Urine was collected in separate 2 hr aliquots prior to, during and following the bradykinin infusion.
^1 The excretion of TXM and PGIM before and following dermal aspirin
750 mg/day or oral aspirin 75 mg/day for 10 days. Urine samples were
collected over 2 hr before (rest) and following the administration of […]

[2] = Plasma aspirin levels following oral aspirin; type: in vivo; settings: human
Experimental: The preservation of vascular cyclooxygenase is consistent with the low bioavailability of the dermal aspirin. Plasma aspirin and salicylate were determined using a highly sensitive assay that can measure levels of <0.1 ng/ml. Following oral aspirin 325 mg or 162 mg, peak plasma aspirin levels were 2.0 and 1.3 ug/ml, respectively. In contrast, following dermal aspirin, plasma levels peaked at 237±114 ng/ml and plasma salicylate peaked at 788±114 ng/ml.

PGI2 synthesis = settings: cited from earlier work
[3] = Subject 1, baseline 401, about 24 h after previous application

For `CC(=O)Oc1ccccc1C(=O)O` [aspirin, acetyl salicylic acid], the “Decrease in thromboxane levels after five daily applications” value (thromboxane-B2; Day 5, subject 3 not considered) was “at least 50%”, the “Thromboxane level, Day 3” value (thromboxane-B2; [3]) was 250 ng/cc and the “Thromboxane level, Day 4” value (thromboxane-B2; [3]) was 199 ng/cc. For the same compound, the “Thromboxane level, Day 5, prior to the Day 5 dose” value (thromboxane-B2; Subject 1, baseline 401, morning of Day 5) was 105 ng/cc, the “Thromboxane level, Day 2” value (thromboxane-B2; Subject 1, baseline 401, topical aspirin ~9% solution daily, about 24 h after previous application) was 311 ng/cc and the “Thromboxane level, Day 10” value (thromboxane-B2; two subjects continuing to ten daily applications, subject 1 baseline 401, subject 2 baseline 372) was 18 ng/cc and 12 ng/cc. For the same compound, the “Suppression of thromboxane levels by Day 10” value (thromboxane-B2; two subjects, ten daily applications) was 95% and 97%, the “TX-M post ASA” value ([1]; Dermal aspirin 750 mg/day, PT 1, pre ASA 220) was 46 and the “TX-M post ASA” value ([1]; Dermal aspirin 750 mg/day, PT 2, pre ASA 121) was 29. The “TX-M post ASA” value ([1]; Oral aspirin 75 mg/day, PT 1, pre ASA 136) was 26, the “TX-M post ASA” value ([1]; Oral aspirin 75 mg/day, PT 2, pre ASA 111) was 43 and the “Urinary TX-M” value ([1]; dermal aspirin 750 mg/day) was “marked fall in urinary TX-M; also recorded: suppressed TXM”. For the same compound, the “Urinary TX-M” value ([1]; oral aspirin 75 mg/day) was “marked fall in urinary TX-M”, the Cmax ([2]; oral aspirin 75 mg, read-out: Levels following oral aspirin) was 1000 to 2000 ng/mL and the Cmax ([2]; oral aspirin 162 mg, read-out: Peak plasma aspirin level) was 1300 ng/mL. The Cmax ([2]; oral aspirin 325 mg, read-out: Peak plasma aspirin level) was 2000 ng/mL, the “Inhibition of PGI2 synthesis, arterial and venous tissue” value (PGI2 synthesis; 20 mg/day for 1 week, atherosclerotic patients) was 50% and the “Urinary PGI2 metabolites / prostacyclin biosynthesis” value (PGI2 synthesis; approximately 40 mg/day) was “no significant effect on prostacyclin biosynthesis”. The “Reduction of PGI2 synthesis, arterial and venous tissue” value (PGI2 synthesis; equally low doses (about 40 mg/day)) was 50% and the “Bradykinin-stimulated PGI2 formation” value (PGI2 synthesis; oral aspirin 75 mg/day) was “abolished”.
